Experimental findings from patent publication US10407409B2, “6-(5-hydroxy-1H-pyrazol-1-yl)nicotinamide inhibitors of PHD” (Takeda Pharmaceutical Company Limited, priority 2013, dated 2019) are described below.

In test [1] the test system is HIF1a protein in H9c2 rat cardiomyocytes. The experiment in a line: Cell-based HIF-alpha stabilization assay (inhibition of PHD in cells). Conditions: Rattus norvegicus, H9c2, 24 h, 24 hrs compound incubation, HIF1a protein by ELISA, read-out: Inhibition of PHD in cells (pEC50) (converted). The procedure, abridged:
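HIF1a stabilization was measured by ELISA on lysates of H9c2 rat cardiomyocytes after 24 h exposure to 11 serial compound concentrations, expressed relative to the desferrioxamine maximum. Curve fits gave EC50. EC50pos denotes the concentration producing half the desferrioxamine maximal response.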

Test [2] has as its target PHD2 enzyme (residues 181-417) (Homo sapiens (Human), UniProt Q9GZT9). The experiment in a line: Inhibition of PHD enzyme (LC/MS peptide hydroxylation assay). In kind it is biochemical. Conditions: PHD2 (residues 181-417) 5 nM, 60 min pre-incubation, -log(IC50), IC50 molar. The procedure, abridged: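 Hydroxylated peptide quantified by LC/MS after 60 min turnover of 1 uM biotinylated peptide with 2 uM 2-oxoglutarate and 1 mM ascorbate, stopped by excess tight-binding inhibitor. Beforehand, 5 nM enzyme and compound were preincubated 60 min at RT, pH 7.3 HEPES/KCl/TCEP/FeCl2/BSA buffer. Values as pIC50 (−log molar IC50).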

PHD2 enzyme (residues 181-417), sequence (Q9GZT9 181-417): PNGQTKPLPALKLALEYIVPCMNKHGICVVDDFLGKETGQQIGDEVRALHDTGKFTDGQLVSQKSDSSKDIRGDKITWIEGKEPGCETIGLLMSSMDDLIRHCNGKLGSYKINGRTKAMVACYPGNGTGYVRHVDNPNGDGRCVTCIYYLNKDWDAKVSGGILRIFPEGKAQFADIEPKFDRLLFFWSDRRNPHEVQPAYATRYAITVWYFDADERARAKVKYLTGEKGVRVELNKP

For the compound `Cc1cc(C#N)ccc1-c1cnn(-c2ccc(C(=O)N3CCC(N4CCOCC4)C3)cn2)c1O` (stereo not drawn) [Example 347, 4-(5-hydroxy-1-(5-(3-morpholinopyrrolidine-1-carbonyl)pyridin-2-yl)-1H-pyrazol-4-yl)-3-methylbenzonitrile], in test [1], the EC50 was 0.631 µM. For the same compound, in test [2], the “PHD Inhibition (pIC50)” value is 8.29.
With `Cc1cc(C#N)ccc1-c1cnn(-c2ccc(C(=O)N[C@@H]3CCOC3)cn2)c1O` [Example 137, (R)-6-(4-(4-cyano-2-methylphenyl)-5-hydroxy-1H-pyrazol-1-yl)-N-(tetrahydrofuran-3-yl)nicotinamide], the EC50 in test [1] is 0.245 µM. For the same compound, the “PHD Inhibition (pIC50)” value in test [2] worked out at 7.21.
Take `COC[C@H]1CCC[C@H]1NC(=O)c1ccc(-n2ncc(-c3ccnc(OC)c3)c2O)nc1` [Example 45, 6-(5-hydroxy-4-(2-methoxypyridin-4-yl)-1H-pyrazol-1-yl)-N-((1R,2S)-2-(methoxymethyl)cyclopentyl)nicotinamide]: the EC50 in test [1] was 0.562 µM. For the same compound, the “PHD Inhibition (pIC50)” value in test [2] is 8.
For `CCOCCCNC(=O)c1ccc(-n2ncc(-c3ccnc(OC)c3)c2O)nc1` [Example 12, N-(3-ethoxypropyl)-6-(5-hydroxy-4-(2-methoxypyridin-4-yl)-1H-pyrazol-1-yl)nicotinamide], the EC50 in test [1] is 0.661 µM. Besides, the “PHD Inhibition (pIC50)” value in test [2] is on record as 7.44.
On to `COCC1(NC(=O)c2ccc(-n3ncc(-c4ccc(C#N)cc4C)c3O)nc2)CCCC1` [Example 129, 6-(4-(4-cyano-2-methylphenyl)-5-hydroxy-1H-pyrazol-1-yl)-N-(1-(methoxymethyl)cyclopentyl)nicotinamide], for which the EC50 in test [1] was 0.186 µM. For the same compound, the “PHD Inhibition (pIC50)” value in test [2] amounted to 7.14.
For `COC[C@H]1CCC[C@H]1NC(=O)c1ccc(-n2ncc(-c3ccc(C#N)cc3)c2O)nc1` [Example 110, 6-(4-(4-cyanophenyl)-5-hydroxy-1H-pyrazol-1-yl)-N-((1R,2S)-2-(methoxymethyl)cyclopentyl)nicotinamide], the EC50 in test [1] is 1.23 µM. Besides, the “PHD Inhibition (pIC50)” value in test [2] amounted to 8.1.
The matching figures for `Cc1cc(C#N)ccc1-c1cnn(-c2ccc(C(=O)N3CCC[C@@H](N4CCCC4)C3)cn2)c1O` [Example 387, (R)-4-(5-hydroxy-1-(5-(3-(pyrrolidin-1l-yl)piperidine-1-carbonyl)pyridin-2-yl)-1H-pyrazol-4-yl)-3-methylbenzonitrile]: 0.871 µM and 7.91.
For `N#Cc1ccc(-c2cnn(-c3ccc(C(=O)NCCOC(F)(F)F)cn3)c2O)cc1` [Example 236, 6-(4-(4-cyanophenyl)-5-hydroxy-1H-pyrazol-1-yl)-N-(2-(trifluoromethoxy)ethyl)nicotinamide], in that order: 0.589 µM and 7.51.
With `N#Cc1cnn(-c2cnn(-c3ccc(C(=O)NCc4ccccc4)cn3)c2O)c1` [Example 157, N-benzyl-6-(4-cyano-5′-hydroxy-1′H-[1,4′-bipyrazol]-1′-yl)nicotinamide], the EC50 in test [1] was 1.7 µM. Moreover, the “PHD Inhibition (pIC50)” value in test [2] was determined as 6.97.
For `CCNC(=O)c1ccc(-n2ncc(-c3ccc(C#N)cc3)c2O)nc1` [Example 266, 6-(4-(4-cyanophenyl)-5-hydroxy-1H-pyrazol-1-yl)-N-ethylnicotinamide], in that order: 1.91 µM and 7.23.
In the case of `CO[C@H]1CC[C@@H](NC(=O)c2ccc(-n3ncc(-c4ccc(C#N)cc4F)c3O)nc2)CC1` [Example 284, 6-(4-(4-cyano-2-fluorophenyl)-5-hydroxy-1H-pyrazol-1-yl)-N-((1 s,4s)-4-methoxycyclohexyl)nicotinamide], in test [1], the EC50 was 1.29 µM. In addition, the “PHD Inhibition (pIC50)” value in test [2] stood at 8.21.
As for `COc1cc(-c2cnn(-c3ccc(C(=O)N[C@H]4CC[C@@H](OC)CC4)cn3)c2O)ccn1` [Example 9, 6-(5-hydroxy-4-(2-methoxypyridin-4-yl)-1H-pyrazol-1-yl)-N-((1s,4s)-4-methoxycyclohexyl)nicotinamide], the EC50 in test [1] is 0.525 µM. The “PHD Inhibition (pIC50)” value in test [2] is on record as 7.5.
Consider `COCCCNC(=O)c1ccc(-n2ncc(-c3ccc(C#N)cc3F)c2O)nc1` [Example 213, 6-(4-(4-cyano-2-fluorophenyl)-5-hydroxy-1H-pyrazol-1-yl)-N-(3-methoxypropyl)nicotinamide], for which the EC50 in test [1] was 0.38 µM. Besides, the “PHD Inhibition (pIC50)” value in test [2] came to 7.45.
As for `Cc1cc(C#N)ccc1-c1cnn(-c2ccc(C(=O)NCC3CCC3)cn2)c1O` [Example 180, 6-(4-(4-cyano-2-methylphenyl)-5-hydroxy-1H-pyrazol-1-yl)-N-(cyclobutylmethyl)nicotinamide], the EC50 in test [1] was 0.398 µM. Besides, the “PHD Inhibition (pIC50)” value in test [2] was 8.2.
For the compound `CCN1CCCC1CN(C)C(=O)c1ccc(-n2ncc(-c3ccc(C#N)cc3C)c2O)nc1` (stereo not drawn) [Example 355, 6-(4-(4-cyano-2-methylphenyl)-5-hydroxy-1H-pyrazol-1-yl)-N-((1-ethylpyrrolidin-2-yl)methyl)-N-methylnicotinamide], the EC50 in test [1] is 0.724 µM. Besides, the “PHD Inhibition (pIC50)” value in test [2] is 7.94.
For `COc1cc(C#N)ccc1-c1cnn(-c2ccc(C(=O)NC3CC3)cn2)c1O` [Example 232, 6-(4-(4-cyano-2-methoxyphenyl)-5-hydroxy-1H-pyrazol-1-yl)-N-cyclopropylnicotinamide], in that order: 0.339 µM and 7.01.
With `Cc1cc(C#N)ccc1-c1cnn(-c2ccc(C(=O)N3CCN4CCCC4C3)cn2)c1O` (racemic) [Example 288, (+/−)-4-(5-hydroxy-1-(5-(octahydropyrrolo[1,2-a]pyrazine-2-carbonyl)pyridin-2-yl)-1H-pyrazol-4-yl)-3-methylbenzonitrile], the EC50 in test [1] is 0.575 µM. For the same compound, the IC50 in test [2] (read-out: PHD Inhibition (pIC50) (converted)) was 0.00331 µM.
Take `N#Cc1ccc(-c2cnn(-c3ccc(C(=O)NC4CC(F)(F)C4)cn3)c2O)cc1` [Example 265, 6-(4-(4-cyanophenyl)-5-hydroxy-1H-pyrazol-1-yl)-N-(3,3-difluorocyclobutyl)nicotinamide]: the EC50 in test [1] is 6.61 µM. Moreover, the “PHD Inhibition (pIC50)” value in test [2] was determined as 6.77.
Take `COc1cc(-c2cnn(-c3ccc(C(=O)NC4(C5CCOCC5)CC4)cn3)c2O)ccn1` [Example 233, 6-(5-hydroxy-4-(2-methoxypyridin-4-yl)-1H-pyrazol-1-yl)-N-(1-(tetrahydro-2H-pyran-4-yl)cyclopropyl)nicotinamide]: the EC50 in test [1] is 0.589 µM. In addition, in test [2], the “PHD Inhibition (pIC50)” value was determined as 6.7.
The matching figures for `COCCCNC(=O)c1ccc(-n2ncc(-c3ccc(C#N)cc3)c2O)nc1` [Example 148, 6-(4-(4-cyanophenyl)-5-hydroxy-1H-pyrazol-1-yl)-N-(3-methoxypropyl)nicotinamide]: 0.631 µM and 7.57.
On to `Cc1cc(C#N)ccc1-c1cnn(-c2ccc(C(=O)N3CCN(CCN(C)C)CC3)cn2)c1O` [Example 423, 4-(1-(5-(4-(2-(dimethylamino)ethyl)piperazine-1-carbonyl)pyridin-2-yl)-5-hydroxy-1H-pyrazol-4-yl)-3-methylbenzonitrile], for which, in test [1], the EC50 is 0.708 µM. The “PHD Inhibition (pIC50)” value in test [2] amounted to 7.99.
For `Cc1cc(C#N)ccc1-c1cnn(-c2ccc(C(=O)N(C)C3CCN(C4CC4)CC3)cn2)c1O` [Example 296, 6-(4-(4-cyano-2-methylphenyl)-5-hydroxy-1H-pyrazol-1-yl)-N-(1-cyclopropylpiperidin-4-yl)-N-methylnicotinamide], in that order: 1 µM and 8.23.
`CCN1CCCC1CN(C)C(=O)c1ccc(-n2ncc(-c3ccc(C#N)cc3)c2O)nc1` (stereo not drawn) [Example 363, 6-(4-(4-cyanophenyl)-5-hydroxy-1H-pyrazol-1-yl)-N-((1-ethylpyrrolidin-2-yl)methyl)-N-methylnicotinamide]: in test [1], the EC50 is 2.09 µM. Moreover, the “PHD Inhibition (pIC50)” value in test [2] amounted to 7.28.
In the case of `N#Cc1ccc(-c2cnn(-c3ccc(C(=O)NCc4ccccc4)cn3)c2O)c(Cl)c1` [Example 196, N-benzyl-6-(4-(2-chloro-4-cyanophenyl)-5-hydroxy-1H-pyrazol-1-yl)nicotinamide], the EC50 in test [1] is 3.55 µM. Moreover, the “PHD Inhibition (pIC50)” value in test [2] is listed as 6.84.
On to `Cc1cc(C#N)ccc1-c1cnn(-c2ccc(C(=O)N3CCN(C(C)(C)C)CC3)cn2)c1O` [Example 291, 4-(1-(5-(4-(tert-butyl)piperazine-1-carbonyl)pyridin-2-yl)-5-hydroxy-1H-pyrazol-4-yl)-3-methylbenzonitrile], for which the EC50 in test [1] was 0.977 µM. The “PHD Inhibition (pIC50)” value in test [2] is reported as 8.15.
As for `Cc1cc(C#N)ccc1-c1cnn(-c2ccc(C(=O)NCCCN3CCCCC3C)cn2)c1O` (stereo not drawn) [Example 97, 6-(4-(4-cyano-2-methylphenyl)-5-hydroxy-1H-pyrazol-1-yl)-N-(3-(2-methylpiperidin-1-yl)propyl)nicotinamide], in test [1], the EC50 is 0.0562 µM. Moreover, the “PHD Inhibition (pIC50)” value in test [2] was determined as 8.
Consider `CN(C)CCCNC(=O)c1ccc(-n2ncc(-c3ccc(C#N)cc3)c2O)nc1` [Example 269, 6-(4-(4-cyanophenyl)-5-hydroxy-1H-pyrazol-1-yl)-N-(3-(dimethylamino)propyl)nicotinamide], for which the EC50 in test [1] was 1.95 µM. The “PHD Inhibition (pIC50)” value in test [2] stood at 6.82.
